The record followed here is patent publication US11492335B2, “Aryl or heteroaryl triazolone derivatives or salts thereof, or pharmaceutical compositions comprising the same” (YUHAN CORPORATION, priority 2018, dated 2022).

Common to all, as to assay type: biochemical
The target of assay [1] is T1, recombinant human MAO-B (monoamine oxidase-B) (Homo sapiens, UniProt P27338).
T1 construct: purchased Sigma-Aldrich
T1 sequence (P27338 1-520): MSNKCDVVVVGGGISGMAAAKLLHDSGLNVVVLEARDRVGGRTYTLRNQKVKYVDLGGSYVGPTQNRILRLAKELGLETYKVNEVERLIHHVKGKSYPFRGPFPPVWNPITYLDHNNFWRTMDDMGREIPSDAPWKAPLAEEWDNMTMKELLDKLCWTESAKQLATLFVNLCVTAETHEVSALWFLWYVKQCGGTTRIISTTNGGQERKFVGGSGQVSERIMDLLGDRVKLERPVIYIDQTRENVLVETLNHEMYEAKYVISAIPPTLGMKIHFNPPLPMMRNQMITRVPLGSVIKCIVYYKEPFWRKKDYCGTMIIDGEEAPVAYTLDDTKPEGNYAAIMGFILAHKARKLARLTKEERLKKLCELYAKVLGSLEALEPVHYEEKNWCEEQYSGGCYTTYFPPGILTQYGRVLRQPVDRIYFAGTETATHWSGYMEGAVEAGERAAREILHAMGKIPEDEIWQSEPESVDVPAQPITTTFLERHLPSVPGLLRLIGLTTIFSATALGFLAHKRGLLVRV
As to the kind of experiment: Activity on recombinant human MAO-B, Amplex Red method, 1 mM benzylamine substrate. The note with it: read-out: Inhibitory Activity (IC50, nM) MAO-B. As for the experimental part:
(§1) The compounds according to the present technology were evaluated in terms of activity on recombinant human VAP-1 (R&D systems) by measuring the level of hydrogen peroxide in horseradish peroxidase (HRP)-coupled reaction using Amplex Red Hydrogen Peroxide Assay Kit (Molecular Probes, Invitrogen, USA). The experiment was carried out at room temperature using benzylamine as a substrate. In the HRP-coupled reaction, hydrogen peroxide oxidation of 10-acetyl-3,7-dihydroxyphenoxazine (Amplex Red reagent) produces resorufin, which is a highly fluorescent compound. Briefly, the test compound was dissolved in dimethyl sulfoxide (DMSO) at a concentration of 20 mM. The dose-response assessment was made by 1:3 serial dilution in DMSO, thereby creating an 8 point curve. The concentration of the upper part was controlled according to the efficacy of the compounds, followed by dilution with a reaction buffer solution to obtain a final DMSO concentration less than 1%. To each well of a 96 black well plate, human VAP-1 purified in 50 mM sodium phosphate buffer solution (pH7.4) was added. The test compounds dissolved in DMSO were incubated with the human VAP-1 enzymes at 37° C. for 30 minutes. After 30-minute incubation, each well is added with a reaction mixture containing 200 uM Amplex Red reagent prepared from 50 mM sodium phosphate buffer solution (pH 7.4), 1 mM benzylamine, and 1 U/mL HRP. Fluorescence intensity was measured at several time points during 1-2 hours using a microplate reader (Flexstation3, Molecular Devices) under the wavelength condition exciting at 544 nm and reading the emission at 590 nm. The inhibitory effect of the compounds was measured as a decrease (%) in the signal rate as compared to the control group without any inhibitor (only diluted DMSO). Data was fixed to a logistic model with four variables and IC50 value was calculated using GraphPad Prism program.
(§2) In addition, the compounds according to the present technology were evaluated in terms of activity on a recombinant human MAO-A (monoamine oxidase-A, Sigma-Aldrich) and a recombinant human MAO-B (monoamine oxidase-B, Sigma-Aldrich) by using as substrates, 0.5 mM tyramine and 1 mM benzylamine, respectively, with a method similar to the activity evaluation method for recombinant human VAP-1. The compounds according to the present technology were also evaluated in terms of activity on a recombinant human DAO (diamine oxidase, R&D systems) by using as a substrate 1 mM putrescine with a method similar to the activity evaluation method for recombinant human VAP-1.

In assay [2] the target is T2, recombinant human DAO (diamine oxidase) (Homo sapiens, UniProt P19801).
T2 construct: purchased R&D systems
T2 sequence (P19801 20-751): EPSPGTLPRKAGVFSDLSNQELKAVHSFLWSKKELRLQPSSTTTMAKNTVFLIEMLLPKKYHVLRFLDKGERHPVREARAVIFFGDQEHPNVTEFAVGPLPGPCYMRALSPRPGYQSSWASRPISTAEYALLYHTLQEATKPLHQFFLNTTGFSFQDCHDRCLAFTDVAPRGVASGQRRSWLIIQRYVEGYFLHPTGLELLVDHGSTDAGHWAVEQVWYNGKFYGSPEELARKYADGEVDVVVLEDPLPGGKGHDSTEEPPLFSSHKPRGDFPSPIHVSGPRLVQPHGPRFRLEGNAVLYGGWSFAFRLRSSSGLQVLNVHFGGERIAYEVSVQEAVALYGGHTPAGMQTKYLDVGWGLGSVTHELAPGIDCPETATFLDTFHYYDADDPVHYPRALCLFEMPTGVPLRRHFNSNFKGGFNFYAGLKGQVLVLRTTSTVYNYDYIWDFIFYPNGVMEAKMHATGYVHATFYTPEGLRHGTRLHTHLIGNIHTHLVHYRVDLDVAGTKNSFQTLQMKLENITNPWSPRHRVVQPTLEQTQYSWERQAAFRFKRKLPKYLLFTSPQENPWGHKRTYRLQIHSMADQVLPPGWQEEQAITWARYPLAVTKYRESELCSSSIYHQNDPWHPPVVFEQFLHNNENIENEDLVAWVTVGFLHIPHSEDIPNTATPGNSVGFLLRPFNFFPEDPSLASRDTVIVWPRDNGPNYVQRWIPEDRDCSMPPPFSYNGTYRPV
In words: Activity on recombinant human DAO, Amplex Red method, 1 mM putrescine substrate. In short, it runs like this: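 Inhibition of recombinant human DAO (diamine oxidase, R&D systems) was assessed with the Amplex Red Hydrogen Peroxide Assay Kit. Hydrogen peroxide produced from 1 mM putrescine was detected through an HRP-coupled reaction that converts Amplex Red into fluorescent resorufin, read at 544 nm excitation and 590 nm emission. IC50 values came from four-parameter logistic fits in GraphPad Prism.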

In assay [3] the target is T3, recombinant human MAO-A (monoamine oxidase-A) (Homo sapiens, UniProt P21397).
T3 construct: purchased Sigma-Aldrich
T3 sequence (P21397 1-527): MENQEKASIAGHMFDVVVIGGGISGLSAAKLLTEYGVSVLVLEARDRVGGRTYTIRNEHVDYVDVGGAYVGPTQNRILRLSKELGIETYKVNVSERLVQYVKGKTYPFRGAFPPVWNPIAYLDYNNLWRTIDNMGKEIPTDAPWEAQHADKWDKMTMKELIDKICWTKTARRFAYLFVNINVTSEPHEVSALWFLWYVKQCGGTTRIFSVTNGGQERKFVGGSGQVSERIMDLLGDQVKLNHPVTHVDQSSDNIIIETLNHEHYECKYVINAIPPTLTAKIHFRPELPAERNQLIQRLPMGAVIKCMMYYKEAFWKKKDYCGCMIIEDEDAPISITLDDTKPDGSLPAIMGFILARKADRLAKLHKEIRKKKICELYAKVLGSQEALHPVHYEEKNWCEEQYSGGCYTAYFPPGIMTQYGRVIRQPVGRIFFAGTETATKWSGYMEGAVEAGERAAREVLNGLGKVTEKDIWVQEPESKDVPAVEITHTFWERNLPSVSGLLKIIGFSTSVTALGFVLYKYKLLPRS
As to the kind of experiment: Activity on recombinant human MAO-A, Amplex Red method, 0.5 mM tyramine substrate. The note with it: read-out: Inhibitory Activity (IC50, nM) MAO-A. As to the method: as §1, §2

For assay [4], the target named is T4, recombinant human VAP-1 (Homo sapiens, UniProt Q16853).
T4 construct: purchased R&D systems
T4 sequence (Q16853 1-763): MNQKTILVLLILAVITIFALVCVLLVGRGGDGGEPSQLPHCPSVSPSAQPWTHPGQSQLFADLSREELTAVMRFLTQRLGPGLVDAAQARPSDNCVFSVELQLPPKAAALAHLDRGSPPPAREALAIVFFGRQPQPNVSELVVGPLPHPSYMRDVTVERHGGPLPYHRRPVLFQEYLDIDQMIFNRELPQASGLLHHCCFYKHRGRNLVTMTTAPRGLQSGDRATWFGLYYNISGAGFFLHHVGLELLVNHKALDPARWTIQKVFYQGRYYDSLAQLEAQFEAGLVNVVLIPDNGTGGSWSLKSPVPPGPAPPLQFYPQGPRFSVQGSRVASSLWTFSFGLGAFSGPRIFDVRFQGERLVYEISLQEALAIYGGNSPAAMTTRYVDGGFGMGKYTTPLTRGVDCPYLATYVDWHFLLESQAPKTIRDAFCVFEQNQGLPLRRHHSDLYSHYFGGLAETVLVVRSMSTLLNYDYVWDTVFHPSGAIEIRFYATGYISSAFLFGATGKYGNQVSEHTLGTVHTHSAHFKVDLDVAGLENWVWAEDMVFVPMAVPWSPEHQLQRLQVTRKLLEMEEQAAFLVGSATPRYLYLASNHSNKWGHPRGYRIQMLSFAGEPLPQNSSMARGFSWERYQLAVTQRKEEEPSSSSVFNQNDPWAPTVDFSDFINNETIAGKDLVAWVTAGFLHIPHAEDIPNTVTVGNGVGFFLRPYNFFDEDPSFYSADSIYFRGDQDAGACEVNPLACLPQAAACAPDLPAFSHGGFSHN
In words: Activity on recombinant human VAP-1, Amplex Red HRP-coupled hydrogen peroxide assay, benzylamine substrate. The note with it: recombinant human VAP-1, benzylamine substrate, read-out: Inhibitory Activity (IC50, nM) human VAP-1. In short, it runs like this: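 Dose-response IC50 determined from reduction in resorufin signal rate (544/590 nm, 1-2 h), with 30 min compound preincubation at 37 °C and 1 mM benzylamine as substrate.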

Setting [5] is: recombinant human DAO, 1 mM putrescine substrate, read-out: Inhibitory Activity (IC50, nM) DAO.
The mark [6] stands for this setting: recombinant human DAO, 1 mM putrescine, * = between 10 and 100 nM, ** = between 300 and 1000 nM, read-out: Inhibitory Activity (IC50, nM) DAO.

Structures can show the parent of a compound that is named as a salt. Where two headings read alike, the source gives them in different places.

Regarding `CN(C)c1ccc(C#Cc2cccc(-n3cnn(C/C(=C/F)CN)c3=O)n2)cn1` [Example 248, 2-[(E)-2-(aminomethyl)-3-fluoro-allyl]-4-[6-[2-[6-(dimethylamino)-3-pyridyl]ethynyl]-2-pyridyl]-1,2,4-triazol-3-one], the IC50 in assay [1] (1 mM benzylamine substrate) was above 10000 nM; in assay [2] (setting [5]), 36 nM; in assay [3] (0.5 mM tyramine substrate) it was above 100000 nM; in assay [4], 0.5 nM.
As for `NC/C(=C\F)Cn1ncn(-c2cccc(-c3ccc(-c4nnc[nH]4)cc3)c2)c1=O` [Example 59, 2-[(2E)-2-(aminomethyl)-3-fluoroprop-2-en-1-yl]-4-[4′-(4H-1,2,4-triazol-3-yl)biphenyl-3-yl]-2,4-dihydro-3H-1,2,4-triazol-3-one], the IC50 in assay [1] (1 mM benzylamine) was above 10000 nM; in assay [2] (setting [6]), below 100 nM; in assay [3] (0.5 mM tyramine), above 100000 nM; in assay [4] (30 min preincubation at 37° C.), 0.62 nM.
The corresponding values for `NC/C(=C\F)Cn1ncn(-c2cccc(-c3cccc(-c4ncon4)c3)c2)c1=O` [Example 62, 2-[(2E)-2-(aminomethyl)-3-fluoroprop-2-en-1-yl]-4-[3′-(1,2,4-oxadiazol-3-yl)biphenyl-3-yl]-2,4-dihydro-3H-1,2,4-triazol-3-one] are 117 nM, below 100 nM, above 100000 nM and 0.53 nM.
For the molecule `CN(C)c1ncc(-c2cccc(-n3cnn(C/C(=C/F)CN)c3=O)n2)cc1F` [Example 191, 2-[(2E)-2-(aminomethyl)-3-fluoroprop-2-en-1-yl]-4-[6′-(dimethylamino)-5′-fluoro-2,3′-bipyridin-6-yl]-2,4-dihydro-3H-1,2,4-triazol-3-one hydrochloride], the IC50 is 1200 nM in assay [1] (1 mM benzylamine substrate), 19 nM in assay [2] (setting [5]), above 100000 nM in assay [3] (0.5 mM tyramine substrate) and 0.5 nM in assay [4].
As for `Cc1cc(-n2cnn(C/C(=C\F)CN)c2=O)cnc1Br` [Example 26, 2-[(2Z)-2-(aminomethyl)-3-fluoroprop-2-en-1-yl]-4-(6-bromo-5-methylpyridin-3-yl)-2,4-dihydro-3H-1,2,4-triazol-3-one hydrochloride], the IC50 in assay [1] (1 mM benzylamine) was 9.4 nM; in assay [2] (setting [6]), 14 nM; in assay [3] (0.5 mM tyramine), above 100000 nM; in assay [4] (30 min preincubation at 37° C.), 5.3 nM.
Regarding `NC/C(=C\F)Cn1ncn(-c2cccc(C3=CCNCC3)c2)c1=O` [Example 48, 2-[(2E)-2-(aminomethyl)-3-fluoroprop-2-en-1-yl]-4-[3-(1,2,3,6-tetrahydropyridin-4-yl)phenyl]-2,4-dihydro-3H-1,2,4-triazol-3-one dihydrochloride], the IC50 in assay [1] (1 mM benzylamine) is above 10000 nM; in assay [2], 0.79 nM; in assay [3] (0.5 mM tyramine) it was above 100000 nM; in assay [4] (30 min preincubation at 37° C.) it was 0.56 nM.
`NC/C(=C\F)Cn1ncn(-c2cc(-c3ccc4c(c3)OCCO4)ccn2)c1=O` [Example 171, 2-[(2E)-2-(aminomethyl)-3-fluoroprop-2-en-1-yl]-4-[4-(2,3-dihydro-1,4-benzodioxin-6-yl)pyridin-2-yl]-2,4-dihydro-3H-1,2,4-triazol-3-one]: the IC50 is 1540 nM in assay [1] (1 mM benzylamine substrate), below 30 nM in assay [2] (setting [5]), above 100000 nM in assay [3] (0.5 mM tyramine substrate) and 0.84 nM in assay [4].
As for `NC/C(=C\F)Cn1ncn(-c2cccc(-c3ccc4c(c3)NC(=O)CO4)n2)c1=O` [Example 199, hydrochloride], the IC50 is 1900 nM in assay [1] (1 mM benzylamine substrate); below 100 nM in assay [2] (recombinant human DAO, 1 mM putrescine substrate, bound qualified by footnote * / **, read-out: Inhibitory Activity (IC50, nM) DAO); above 100000 nM in assay [3] (0.5 mM tyramine substrate); 4.6 nM in assay [4].
